The record followed here is ChEMBL document CHEMBL5512695, “Discovery of N-Substituted Acetamide Derivatives as Promising P2Y14R Antagonists Using Molecular Hybridization Based on Crystallographic Overlay” (J Med Chem, 2024).

In data set [1] the target is T1, P2Y purinoceptor 14 (Homo sapiens) (UniProt Q15391).
T1 sequence (whole entry): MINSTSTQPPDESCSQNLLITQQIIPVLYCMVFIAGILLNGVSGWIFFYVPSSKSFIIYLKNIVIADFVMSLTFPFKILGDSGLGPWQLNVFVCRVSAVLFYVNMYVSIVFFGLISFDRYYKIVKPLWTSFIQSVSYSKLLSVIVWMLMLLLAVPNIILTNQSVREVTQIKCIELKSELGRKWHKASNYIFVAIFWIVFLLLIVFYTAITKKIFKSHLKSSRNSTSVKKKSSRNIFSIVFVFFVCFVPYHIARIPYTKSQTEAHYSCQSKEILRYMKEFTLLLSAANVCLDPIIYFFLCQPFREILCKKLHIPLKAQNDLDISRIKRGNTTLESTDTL
As to conditions: time 30.0 min.

Data set [2] has as its system HUVEC. Kind of data set: Cytotoxicity against MSU/LPS-stimulated HUVEC cells assessed as decrease in cell viability at 256 uM incubated for 24 hrs by SRB assay. Format: toxicity, cell-based. As to conditions: human.
In data set [3] the target is Voltage-gated inwardly rectifying potassium channel KCNH2 (Homo sapiens, UniProt Q12809). As to the kind of experiment: Inhibition of hERG expressed in HEK293 by whole cell Q-patch analysis. The format is toxicity, cell-based. Background: The hERG channel carries a current that helps repolarise heart muscle cells.
Chain of Voltage-gated inwardly rectifying potassium channel KCNH2 (Q12809 whole entry): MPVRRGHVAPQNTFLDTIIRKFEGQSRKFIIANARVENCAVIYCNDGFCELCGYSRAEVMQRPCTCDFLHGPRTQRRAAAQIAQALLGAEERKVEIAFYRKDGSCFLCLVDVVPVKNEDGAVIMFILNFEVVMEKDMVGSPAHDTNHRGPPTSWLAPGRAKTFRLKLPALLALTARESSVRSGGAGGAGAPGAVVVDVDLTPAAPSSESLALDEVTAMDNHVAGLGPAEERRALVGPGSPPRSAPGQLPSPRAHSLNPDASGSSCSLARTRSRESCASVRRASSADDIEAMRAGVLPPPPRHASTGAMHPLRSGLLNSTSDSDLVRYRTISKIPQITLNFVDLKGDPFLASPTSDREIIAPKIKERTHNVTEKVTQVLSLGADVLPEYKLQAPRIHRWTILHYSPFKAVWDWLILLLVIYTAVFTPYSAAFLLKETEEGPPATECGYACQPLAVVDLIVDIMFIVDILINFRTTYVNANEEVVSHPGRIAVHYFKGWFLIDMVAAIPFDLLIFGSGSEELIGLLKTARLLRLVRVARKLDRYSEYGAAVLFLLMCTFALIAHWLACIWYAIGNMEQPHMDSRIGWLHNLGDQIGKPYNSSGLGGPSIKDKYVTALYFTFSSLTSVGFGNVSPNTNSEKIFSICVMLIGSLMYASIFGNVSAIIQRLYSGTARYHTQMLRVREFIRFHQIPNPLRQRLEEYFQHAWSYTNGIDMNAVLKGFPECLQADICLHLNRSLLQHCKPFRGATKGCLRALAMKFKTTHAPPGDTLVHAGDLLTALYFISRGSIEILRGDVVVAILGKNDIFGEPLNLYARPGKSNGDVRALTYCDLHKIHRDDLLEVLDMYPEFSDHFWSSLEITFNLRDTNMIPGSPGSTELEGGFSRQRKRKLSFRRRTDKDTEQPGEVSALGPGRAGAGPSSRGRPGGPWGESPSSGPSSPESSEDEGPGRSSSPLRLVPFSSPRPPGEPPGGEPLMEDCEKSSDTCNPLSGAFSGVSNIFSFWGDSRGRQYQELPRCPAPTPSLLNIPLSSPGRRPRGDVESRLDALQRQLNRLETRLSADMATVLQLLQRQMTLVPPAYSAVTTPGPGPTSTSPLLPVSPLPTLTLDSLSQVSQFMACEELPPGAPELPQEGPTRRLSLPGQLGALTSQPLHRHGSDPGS
In data set [4] the test system is HEK-293T. Kind of data set: Cytotoxicity against MSU/LPS-stimulated HEK293T cells assessed as decrease in cell viability at 256 uM incubated for 24 hrs by SRB assay. The format is toxicity, cell-based. As to conditions: human.
Data set [5] addresses Cytochrome P450 2C19 (Homo sapiens, UniProt P33261). As to the kind of experiment: Inhibition of CYP2C19 in human liver microsomes using S-mephenytoin as substrate preincubated for 10 mins followed by substrate addition measured after 30 mins by LC/MS analysis. Format: ADME, Microsome. For orientation: Liver microsomes are vesicles of endoplasmic reticulum, rich in cytochrome P450 enzymes.

Data set [6] is described as follows: Half life in SD […] at 20 mg/kg, po measured for 24 hrs. Format: ADME, organism-based. As to conditions: in vivo.
The nature of data set [7]: Stability in SIF assessed as half life. Format: ADME.
Data set [8] is described as follows: Stability in human liver microsomes assessed as half life measured for 45 mins by LC-MS/MS analysis. The format is ADME, Microsome.
Data set [9] is described as follows: Cmax in SD […] at 20 mg/kg, po measured for 24 hrs. Format: ADME, organism-based. The note with it: in vivo.
Data set [10] is described as follows: Oral bioavailability in SD […] at 20 mg/kg measured for 24 hrs. Format: ADME, organism-based. The note with it: in vivo.
A short description of data set [11]: AUC (0 to 24 hrs) in SD […] at 10 mg/kg, iv. The format is ADME, organism-based. As to conditions: in vivo.
Data set [12] is described as follows: Tmax in SD […] at 20 mg/kg, po measured for 24 hrs. Format: ADME, organism-based. The note with it: in vivo.
The nature of data set [13]: Half life in SD […] at 10 mg/kg, iv measured for 24 hrs. The format is ADME, organism-based. The note with it: in vivo.
Data set [14] can be described thus: Cmax in SD […] at 10 mg/kg, iv measured for 24 hrs. The format is ADME, organism-based. As to conditions: in vivo.
The target of data set [15] is P2Y purinoceptor 12 (Homo sapiens, UniProt Q9H244). Kind of data set: Inhibition of human P2Y12R stably expressed in 2-MeSADP -stimulated HEK293 cells incubated for 0.5 hrs by cAMP production assay. The format is functional, cell-based. For orientation: Changes in cAMP serve as a functional read-out for many G protein-coupled receptors.
Chain of P2Y purinoceptor 12 (Q9H244 whole entry): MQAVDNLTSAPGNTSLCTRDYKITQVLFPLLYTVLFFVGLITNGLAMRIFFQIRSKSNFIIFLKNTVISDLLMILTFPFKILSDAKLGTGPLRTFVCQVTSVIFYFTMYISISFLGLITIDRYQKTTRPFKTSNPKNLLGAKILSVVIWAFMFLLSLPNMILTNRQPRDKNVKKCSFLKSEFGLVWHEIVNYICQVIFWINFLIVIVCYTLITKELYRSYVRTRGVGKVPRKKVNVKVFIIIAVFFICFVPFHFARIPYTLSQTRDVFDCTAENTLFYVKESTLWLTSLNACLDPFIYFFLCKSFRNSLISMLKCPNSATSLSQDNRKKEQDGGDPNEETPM
A short description of data set [16]: AUC (0 to 24 hrs) in SD […] at 20 mg/kg, po. The format is ADME, organism-based. As to conditions: in vivo.
For data set [17], the target named is T2, Cytochrome P450 1A2 (Homo sapiens, UniProt P05177).
T2 sequence (P05177 whole entry): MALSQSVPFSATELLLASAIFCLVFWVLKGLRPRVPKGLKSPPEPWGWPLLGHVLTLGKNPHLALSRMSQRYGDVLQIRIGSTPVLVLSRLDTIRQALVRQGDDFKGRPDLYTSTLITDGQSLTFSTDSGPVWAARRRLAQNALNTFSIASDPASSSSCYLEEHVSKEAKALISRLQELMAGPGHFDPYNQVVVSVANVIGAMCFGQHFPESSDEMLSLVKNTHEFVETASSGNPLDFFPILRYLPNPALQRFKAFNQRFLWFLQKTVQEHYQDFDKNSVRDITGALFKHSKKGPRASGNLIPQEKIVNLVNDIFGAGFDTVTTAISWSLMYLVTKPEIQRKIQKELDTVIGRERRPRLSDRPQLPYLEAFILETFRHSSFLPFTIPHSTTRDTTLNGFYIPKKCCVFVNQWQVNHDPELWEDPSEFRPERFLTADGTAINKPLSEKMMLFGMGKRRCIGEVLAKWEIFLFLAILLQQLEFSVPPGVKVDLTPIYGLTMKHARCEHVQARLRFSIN
Kind of data set: Inhibition of CYP1A2 in human liver microsomes using phenacetin as substrate preincubated for 10 mins followed by substrate addition measured after 30 mins by LC/MS analysis. The format is ADME, Microsome.

Data set [18] can be described thus: Tmax in SD […] at 10 mg/kg, iv measured for 24 hrs. Format: ADME, organism-based. As to conditions: in vivo.
Data set [19] can be described thus: Stability in SGF assessed as half life. Format: ADME.
Data set [20] in a line: Clearance in SD […] at 10 mg/kg, iv measured for 24 hrs. The format is ADME, organism-based. The note with it: in vivo.
Data set [21] concerns the target P2Y purinoceptor 6 (Homo sapiens, UniProt Q15077). Kind of data set: Inhibition of human P2Y6R stably expressed in UDP-stimulated HEK293 cells incubated for 0.5 hrs by IP3 production assay. The format is functional, cell-based.
Data set [22] concerns the target Cytochrome P450 3A4 (Homo sapiens, UniProt P08684). As to the kind of experiment: Inhibition of CYP3A4 in human liver microsomes using midazolam as substrate preincubated for 10 mins followed by substrate addition measured after 30 mins by LC/MS analysis. The format is ADME, Microsome.
Data set [23] concerns the target Cytochrome P450 2C9 (Homo sapiens, UniProt P11712). As to the kind of experiment: Inhibition of CYP2C9 in human liver microsomes using diclofenac as substrate preincubated for 10 mins followed by substrate addition measured after 30 mins by LC/MS analysis. The format is ADME, Microsome.
Data set [24] can be described thus: Clearance in SD […] at 20 mg/kg, po measured for 24 hrs. Format: ADME, organism-based. As to conditions: in vivo.
For data set [25], the target named is Cytochrome P450 2D6 (Homo sapiens, UniProt P10635). As to the kind of experiment: Inhibition of CYP2D6 in human liver microsomes using dextromethorphan as substrate preincubated for 10 mins followed by substrate addition measured after 30 mins by LC/MS analysis. The format is ADME, Microsome.
Chain of Cytochrome P450 2D6 (P10635 whole entry): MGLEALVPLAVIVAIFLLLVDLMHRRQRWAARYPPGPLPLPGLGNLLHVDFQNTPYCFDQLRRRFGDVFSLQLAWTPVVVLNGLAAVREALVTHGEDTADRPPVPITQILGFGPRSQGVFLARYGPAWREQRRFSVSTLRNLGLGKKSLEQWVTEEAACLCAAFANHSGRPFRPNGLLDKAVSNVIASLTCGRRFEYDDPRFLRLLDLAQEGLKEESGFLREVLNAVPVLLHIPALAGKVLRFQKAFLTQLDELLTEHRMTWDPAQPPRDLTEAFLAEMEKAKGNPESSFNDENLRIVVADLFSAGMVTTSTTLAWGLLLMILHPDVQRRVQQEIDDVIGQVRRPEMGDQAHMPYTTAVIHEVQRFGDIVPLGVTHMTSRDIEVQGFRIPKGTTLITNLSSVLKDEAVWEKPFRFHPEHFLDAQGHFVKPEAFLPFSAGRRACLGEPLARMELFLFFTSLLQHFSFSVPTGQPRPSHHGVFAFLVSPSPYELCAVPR
Data set [26] addresses T3, P2Y purinoceptor 14 (Homo sapiens, UniProt Q15391).
T3 sequence (Q15391 whole entry): T1 sequence (whole entry)
As to the kind of experiment: Antagonist activity at human P2Y14R stably expressed in HEK293 cells assessed as inhibition of forskolin-[…] cAMP production incubated for 30 mins by cAMP-Glo assay. Format: functional, cell-based.

Where [27] appears, read: HEK293, filed as antagonist, dose 100.0 nM.

A value given as a limit tells only on which side of the number the result lay.

Chain of P2Y purinoceptor 6 (Q15077 whole entry): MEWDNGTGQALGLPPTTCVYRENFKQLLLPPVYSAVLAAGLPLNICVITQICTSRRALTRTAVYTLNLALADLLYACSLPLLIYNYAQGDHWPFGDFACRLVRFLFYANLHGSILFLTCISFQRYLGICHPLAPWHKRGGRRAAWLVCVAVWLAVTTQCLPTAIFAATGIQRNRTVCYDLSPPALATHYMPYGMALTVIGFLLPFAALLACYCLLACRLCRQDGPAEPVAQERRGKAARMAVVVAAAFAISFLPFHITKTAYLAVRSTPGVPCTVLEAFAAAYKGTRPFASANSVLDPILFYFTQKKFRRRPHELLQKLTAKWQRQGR
Chain of Cytochrome P450 2C9 (P11712 whole entry): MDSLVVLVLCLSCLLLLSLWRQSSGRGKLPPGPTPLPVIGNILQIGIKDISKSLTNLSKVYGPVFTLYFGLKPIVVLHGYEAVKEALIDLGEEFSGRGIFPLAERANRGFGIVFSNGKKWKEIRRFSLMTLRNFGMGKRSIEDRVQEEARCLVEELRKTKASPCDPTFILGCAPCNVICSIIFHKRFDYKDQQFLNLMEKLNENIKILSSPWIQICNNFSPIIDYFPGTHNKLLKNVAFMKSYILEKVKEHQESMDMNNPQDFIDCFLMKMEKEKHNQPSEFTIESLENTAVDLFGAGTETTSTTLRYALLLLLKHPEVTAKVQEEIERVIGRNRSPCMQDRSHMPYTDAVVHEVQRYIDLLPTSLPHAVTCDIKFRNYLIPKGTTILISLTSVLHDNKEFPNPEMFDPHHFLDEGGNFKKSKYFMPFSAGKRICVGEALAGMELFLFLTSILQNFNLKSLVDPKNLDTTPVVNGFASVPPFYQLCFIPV
Chain of Cytochrome P450 3A4 (P08684 whole entry): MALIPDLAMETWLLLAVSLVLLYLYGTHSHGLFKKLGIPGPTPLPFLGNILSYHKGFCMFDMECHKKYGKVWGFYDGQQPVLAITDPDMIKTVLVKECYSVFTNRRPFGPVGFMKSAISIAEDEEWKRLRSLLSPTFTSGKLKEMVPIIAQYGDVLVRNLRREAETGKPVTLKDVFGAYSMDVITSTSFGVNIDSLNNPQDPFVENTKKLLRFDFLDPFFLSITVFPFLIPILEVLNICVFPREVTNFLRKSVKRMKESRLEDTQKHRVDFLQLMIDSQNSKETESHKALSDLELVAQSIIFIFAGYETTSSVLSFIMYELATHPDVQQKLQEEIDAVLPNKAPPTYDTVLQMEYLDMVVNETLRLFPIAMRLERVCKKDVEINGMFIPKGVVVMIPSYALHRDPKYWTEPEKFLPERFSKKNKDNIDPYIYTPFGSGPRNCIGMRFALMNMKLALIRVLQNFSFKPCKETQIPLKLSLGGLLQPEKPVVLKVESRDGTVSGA
Chain of Cytochrome P450 2C19 (P33261 whole entry): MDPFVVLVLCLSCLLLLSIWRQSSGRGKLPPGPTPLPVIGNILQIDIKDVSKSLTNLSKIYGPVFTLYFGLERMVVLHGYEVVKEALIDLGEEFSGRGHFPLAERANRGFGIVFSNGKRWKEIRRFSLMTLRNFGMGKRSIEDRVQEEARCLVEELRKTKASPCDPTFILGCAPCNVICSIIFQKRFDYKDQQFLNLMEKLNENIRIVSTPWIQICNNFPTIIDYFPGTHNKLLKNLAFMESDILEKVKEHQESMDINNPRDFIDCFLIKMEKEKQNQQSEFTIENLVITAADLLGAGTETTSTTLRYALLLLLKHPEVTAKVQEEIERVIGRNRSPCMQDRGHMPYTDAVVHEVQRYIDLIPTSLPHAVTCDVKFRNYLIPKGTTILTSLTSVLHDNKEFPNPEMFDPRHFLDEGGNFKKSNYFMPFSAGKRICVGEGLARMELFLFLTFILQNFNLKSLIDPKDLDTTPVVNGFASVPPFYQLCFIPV

By inhibition is commonly meant how much of the control response was suppressed. For `Cc1ccc(OCC(=O)Nc2ccc3sccc3c2)cc1`, the inhibition in [1] (setting [27]) stood at 41.3%.

For the molecule `CC(C)c1ccc(OCC(=O)Nc2ccc3nc[nH]c3c2)cc1`, in data set [1] (HEK293, dose 100.0 nM), the inhibition is 21.8%.

In data set [1] (HEK293, dose 100.0 nM), `O=C(COc1ccc(C(F)(F)F)cc1)Nc1ccc2cccnc2c1` came in with an inhibition of 38.3%.

By IC50 is commonly meant the midpoint of a concentration-inhibition curve. By half-life is commonly meant how long it takes for the measured level to halve. The Cmax is the peak of the concentration-time curve. What is called bioavailability is dose-corrected exposure relative to a reference, in per cent. Higher therefore signals good availability. Usually Tmax stands for the time at which the peak concentration occurs. For orientation: clearance means a measure of how efficiently the substance is removed, as volume per time. Read a high clearance as efficient removal. In general, CL/F refers to the apparent clearance, not corrected for the fraction that reaches the circulation. In the case of `O=C(COc1ccc(Br)cc1)Nc1ccc2nc[nH]c2c1`, the Activity entry in [2] and in data set [4] was “Non-Toxic” throughout. Also, the IC50 in data set [3] was > 50 µM; in [5], > 50 µM; in data set [15], > 100 µM; in data set [17], > 50 µM; in [21], 89.7 µM; in [22], 19.6 µM. Also, the IC50 in data set [23] and in data set [25] was > 50 µM in each case. In addition, the half-life in data set [6] was 12.6 h; in data set [7] it was > 5 h; in data set [8] it was 3.27 h; in [13], 7.6 h; in data set [19], > 50 h. The peak concentration (Cmax) in data set [9] was found to be 2900 ng/mL; in data set [14], 1530 ng/mL. Also, the bioavailability in data set [10] was 75%. In addition, the AUC turned out to be 1765 µg/L/h in data set [11] and 2845 µg/L/h in data set [16]. Also, the Tmax was 0.533 h in [12] and 0.3 h in [18]. The same molecule had a clearance in [20] of 3.5 mL/min/kg. This molecule returned a CL/F in [24] of 14.8 mL/min/kg.

In turn, `O=C(COc1ccc(Cl)cc1)Nc1ccc2cccnc2c1` came in with an inhibition in data set [1] (HEK293, dose 100.0 nM) of 12.1%.

Molecule `O=Cc1ccc(OCC(=O)Nc2ccc3cccnc3c2)cc1` gave an inhibition in [1] (HEK293, dose 100.0 nM) of 17.6%.

`Cc1ccc(OCC(=O)Nc2ccc3cn[nH]c3c2)cc1`: the inhibition in data set [1] (HEK293, dose 100.0 nM) worked out at 11.3%.

In turn, `O=C(COc1ccc(CO)cc1)Nc1ccc2cccnc2c1` came in with an inhibition in data set [1] (HEK293, dose 100.0 nM) of 16.3%.

For `Cc1ccc(OCC(=O)Nc2ccc3ncoc3c2)cc1`, in data set [1] (HEK293, dose 100.0 nM), the inhibition came out at 32%.

In data set [1] (HEK293, dose 100.0 nM), `COc1ccc(OCC(=O)Nc2ccc3nc[nH]c3c2)cc1` yielded an inhibition of 10.2%.

On to `Cc1ccc(OCC(=O)Nc2ccc3ncsc3c2)cc1`, for which the inhibition in data set [1] (HEK293, dose 100.0 nM) was found to be 17.9%.

In data set [1] (HEK293, dose 100.0 nM), `O=C(COc1ccc(Br)cc1)Nc1ccc2cccnc2c1` displayed an inhibition of 15.2%.

In the case of `O=Cc1ccc(OCC(=O)Nc2ccc3nc[nH]c3c2)cc1`, the IC50 in data set [26] was found to be 0.0013 µM. Besides, in [1] (setting [27]), the inhibition is 95.2%.

Turning to `Cc1ccc(OCC(=O)Nc2ccc3cc[nH]c3c2)cc1`, in data set [1] (setting [27]), the inhibition was 48.3%.
